No end group written: not given here.
Experiments:
[1] = biological target: RBD domain of the SARS-CoV-2 S protein (Severe acute respiratory syndrome coronavirus 2, UniProt P0DTC2); assay: biochemical; format: binding; settings: KD Tmeasur. 25°C
[2] = system: BEAS 2B cells; assay: MTS cell viability assay, BEAS 2B; format: cell-based, human; settings: 72 h exposure, concentrations up to 1 mM
Experimental: (§1) BEAS 2B (cat. no.: ATCC® CRL-9609™) and Calu-3 (cat. no.: ATCC HTB-55™) cell lines were purchased from the American Type Culture Collection (ATCC, United States). BEAS 2B cells were maintained in Bronchial Epithelial Cell Growth Medium (BEGM) containing Bronchial Epithelial Basal Medium (BEBM cat. no.: CC-3171) supplemented with growth factors (SingleQuotsTM Supplement Pack cat. no.: CC-4175), both from Lonza (Switzerland). […]
(§2) After 72 h of incubation at 37°C, the combined solution of MTS (Promega, United States, cat. no.: G1112) and an electron coupling reagent, phenazine methosulfate (PMS, Sigma-Aldrich, Merck, Germany, cat. no.: P9625) was added to the cell culture media, to a final concentration of 333 μg/ml MTS and 25 μM PMS. Cells were then incubated for 3 h at 37°C in a humidified, 5% CO2 atmosphere, and the absorbance at 490 nm wavelength was measured using a spectrophotometer (Synergy HT Microplate Reader, BioTek, United States). The absorbance values recorded for cells exposed to peptide were compared to values measured for untreated control cells, regarded as 100% cell viability.
(§3) The amount of formazan product measured spectrophotometrically is directly proportional to the number of viable cells ([Berridge et al., 2005]).

[3] = system: Calu-3 cells; assay: MTS cell viability assay, Calu-3; format: cell-based, human; settings: Calu-3, 72 h exposure, concentrations up to 1 mM
Experimental: as §1, §2, §3

[4] = system: SARS-CoV-2 S protein - hACE2 interaction; settings: ref Odolczyk et al., 2021; read-out: IC50 inhibition of virus-host protein-protein interaction; cited from earlier work

| Molecule | Kd [1] [µM] | Cell viability (MTS) [2] | Cell viability (MTS) [3] | IC50 [4] [µM] |
| --- | --- | --- | --- | --- |
| NC(=O)C[C@H](NC(=O)CNC(=O)[C@H](Cc1ccc(O)cc1)NC(=O)[C@@H](N)CC(=O)O)C(=O)N[C@@H](Cc1c[nH]cn1)C(=O)N[C@@H](CCC(=O)O)C(=O)O [J3, DYGNHE] | 0.05 ± 0.01 | not affected | not affected |  |
| LYGNYE [J3.5, LYGNYE] | > 1 |  |  |  |
| NCCCC[C@H](NC(=O)[C@@H](N)CC(=O)O)C(=O)NCC(=O)N[C@@H](CC(N)=O)C(=O)N[C@@H](Cc1c[nH]cn1)C(=O)N[C@@H](CCC(=O)O)C(=O)O [pep1d, DKGNHE] |  |  |  | 3300 |
| MYGNYE [J3.4, MYGNYE] | > 10 |  |  |  |

— article PMC9555309, “Improvement of native structure-based peptides as efficient inhibitors of protein-protein interactions of SARS-CoV-2 spike protein and human ACE2” (Frontiers in Molecular Biosciences, 2022)
